# Measurements from US7745636B2, “Hepatitis C virus inhibitors” (Bristol-Myers Squibb Company, priority 2006, dated 2010).
# Test system: HCV 1b-377-neo replicon cells
# Test: HCV Replicon assay, HCV 1b-377-neo replicon cells
# Assay type: cell-based, HCV 1b genotype
# Conditions: Hepatitis C virus, Table 2, read-out: Range (EC50 against HCV 1b)
row,SMILES,EC50 [nM]
1,"COC(=O)N[C@H](C(=O)N1[C@H](c2ncc(-c3ccc(-c4ccc(-c5cnc([C@@H]6C[C@@H]7C[C@@H]7N6C(=O)[C@@H](NC(=O)OC)C(C)C)[nH]5)cc4)cc3)[nH]2)C[C@@H]2C[C@@H]21)C(C)C [Example M122, methyl((1S)-1-(((1S,3S,5S)-3-(5-(4′-(2-((1S,3S,5S)-2-((2S)-2-((methoxycarbonyl)amino)-3-methylbutanoyl)-2-azabicyclo[3.1.0]hex-3-yl)-1H-imidazol-5-yl)-4-biphenylyl)-1H-imidazol-2-yl)-2-azabicyclo[3.1.0]hex-2-yl)carbonyl)-2-methylpropyl)carbamate]",1 to 99
2,"COCC[C@H](NC(=O)OC)C(=O)N[C@H](c1nc(-c2ccc(-c3ccc(-c4c[nH]c([C@@H]5CCCN5C(=O)[C@H](CCOC)NC(=O)OC)n4)cc3)cc2)c[nH]1)C(C)C [Example R20, methyl ((1S)-3-methoxy-1-(((2S)-2-(4-(4′-(2-((1S)-1-((N-(methoxycarbonyl)-O-methyl-L-homoseryl)amino)-2-methylpropyl)-1H-imidazol-4-yl)-4-biphenylyl)-1H-imidazol-2-yl)-1-pyrrolidinyl)carbonyl)propyl)carbamate]",0.001 to 0.999
3,COC(=O)N[C@H](C(=O)N[C@H](c1ncc(-c2ccc(-c3ccc(-c4cnc([C@@H]5CCCN5C(=O)[C@@H](NC(=O)OC)C(C)C)[nH]4)cc3)cc2)[nH]1)[C@@H](C)O)C(C)C [Example R29],0.001 to 0.999
4,"COC(=O)N[C@H](C(=O)Nc1ncc(-c2ccc(-c3ccc(-c4cnc([C@@H]5CCCN5C(=O)[C@@H](NC(=O)OC)C(C)C)[nH]4)cc3)cc2)[nH]1)C(C)C [Example R33, (S)-2-methoxycarbonylamino-N-(5-(4′-(2-((S)-1-((S)-2-methoxycarbonylamino-3-methylbutanoyl)pyrrolidin-2-yl)-1H-imidazol-5-yl)biphenyl-4-yl)-1H-imidazol-2-yl)-3-methylbutanamide]",1 to 99
5,COC(=O)N[C@H](C(=O)N[C@H](c1ncc(-c2ccc(-c3ccc(-c4cnc([C@@H]5CCCN5C(=O)[C@@H](NC(=O)OC)C(C)C)[nH]4)cc3)cc2)[nH]1)C(C)OCc1ccccc1)C(C)C (stereo partly shown) [Example R34],0.001 to 0.999
6,C[C@@H](OCc1ccccc1)[C@H](N)c1ncc(-c2ccc(-c3ccc(-c4cnc([C@@H]5CCCN5)[nH]4)cc3)cc2)[nH]1 [Example R35],100 to 999
7,COC(=O)NC(C(=O)Nc1ncc(-c2ccc(-c3ccc(-c4cnc([C@@H]5CCCN5C(O)[C@@H](NC(=O)OC)C(C)C)[nH]4)cc3)cc2)[nH]1)C(C)C (stereo partly shown) [Example R36],0.001 to 0.999
8,COC(=O)N[C@H](C(=O)N[C@H](c1nc(-c2ccc(-c3ccc(-c4c[nH]c(C5CCCN5C(=O)[C@@H](NC(=O)OC)[C@@H](C)OC)n4)cc3)cc2)c[nH]1)C(C)C)[C@@H](C)OC (stereo partly shown) [Example R37],0.001 to 0.999
9,"COC(=O)N[C@H](C(=O)N1CCC[C@H]1c1ncc(-c2ccc(-c3ccc(-c4cnc([C@@H]5CCCN5C(=O)[C@@H](Nc5ncccn5)C(C)C)[nH]4)cc3)cc2)[nH]1)C(C)C [cj-11, methyl ((1S)-2-methyl-1-(((2S)-2-(5-(4′-(2-((2S)-1-(N-2-pyrimidinyl-L-valyl)-2-pyrrolidinyl)-1H-imidazol-5-yl)-4-biphenylyl)-1H-imidazol-2-yl)-1-pyrrolidinyl)carbonyl)propyl)carbamate]",0.001 to 0.999
10,"COC(=O)N[C@H](C(=O)N1CCC[C@H]1c1ncc(-c2ccc(-c3ccc(-c4cnc([C@@H]5CCCN5C(=O)[C@@H](Nc5noc(N)n5)C(C)C)[nH]4)cc3)cc2)[nH]1)C(C)C [cj-16, methyl((1S)-1-(((2S)-2-(5-(4′-(2-((2S)-1-(N-(5-amino-1,2,4-oxadiazol-3-yl)-L-valyl)-2-pyrrolidinyl)-1H-imidazol-5-yl)-4-biphenylyl)-1H-imidazol-2-yl)-1-pyrrolidinyl)carbonyl)-2-methylpropyl)carbamate]",0.001 to 0.999
11,"COC(=O)N[C@H](C(=O)N1CCC[C@H]1c1ncc(-c2ccc(-c3ccc(-c4cnc([C@@H]5CCCN5C(=O)[C@@H](NC(=NC#N)N(C)C)C(C)C)[nH]4)cc3)cc2)[nH]1)C(C)C [cj-17, methyl ((1S)-1-(((2S)-2-(5-(4′-(2-((2S)-1-(N-(cyano(dimethyl)carbamimidoyl)-L-valyl)-2-pyrrolidinyl)-1H-imidazol-5-yl)-4-biphenylyl)-1H-imidazol-2-yl)-1-pyrrolidinyl)carbonyl)-2-methylpropyl)carbamate]",0.001 to 0.999

# Same assay, conditions: Table 2, read-out: Range (EC50 against HCV 1b)
row,SMILES,EC50 [nM]
1,COC(=O)NC(C(=O)NC(C)c1ncc(-c2ccc(-c3ccc(-c4cnc(C5CCCN5C(=O)C(NC(=O)OC)C(C)C)[nH]4)cc3)cc2)[nH]1)C(C)C (stereo not shown) [Example R26],0.001 to 0.999
2,COC(=O)NC(C(=O)NC(C)c1ncc(-c2ccc(-c3ccc(-c4cnc(C5CCCN5C(=O)C(NC(=O)OC)C(C)OC)[nH]4)cc3)cc2)[nH]1)C(C)OC (stereo not shown) [Example R27],0.001 to 0.999
3,O=C1N[C@H](C(=O)N2CCC[C@H]2c2ncc(-c3ccc(-c4ccc(-c5cnc([C@@H]6CCCN6C(=O)[C@@H]6CCOC(=O)N6)[nH]5)cc4)cc3)[nH]2)CCO1 [LS11],1000 to 10000
4,C=CCCOC(=O)N[C@H](C(=O)N1CCC[C@H]1c1ncc(-c2ccc(-c3ccc(-c4cnc([C@@H]5CCCN5C(=O)[C@@H](NC(=O)OCCC=C)C(C)C)[nH]4)cc3)cc2)[nH]1)C(C)C [LS16],1 to 99
5,CNCC(=O)N1CCC[C@H]1c1ncc(-c2ccc(-c3ccc(-c4cnc([C@@H]5CCCN5C(=O)[C@@H](NC(=O)OC)C(C)C)[nH]4)cc3)cc2)[nH]1 [LS20],0.001 to 0.999
6,COC(=O)N[C@H](C(=O)N1CCC[C@H]1c1ncc(-c2ccc(-c3ccc(-c4cnc([C@@H]5CCCN5C(=O)CNCc5ccccc5)[nH]4)cc3)cc2)[nH]1)C(C)C [LS22],0.001 to 0.999
7,COC(=O)N[C@H](C(=O)N1CCC[C@H]1c1ncc(-c2ccc(-c3ccc(-c4cnc([C@@H]5CCCN5C(=O)CNC(C)C)[nH]4)cc3)cc2)[nH]1)C(C)C [LS25],0.001 to 0.999
8,COC(=O)N[C@H](C(=O)N1CCC[C@H]1c1ncc(-c2ccc(-c3ccc(-c4cnc([C@@H]5CCCN5C(=O)CN(C(C)C)C(C)C)[nH]4)cc3)cc2)[nH]1)C(C)C [LS26],0.001 to 0.999
9,CC(C)[C@H](NC(=O)N(C)C)C(=O)O [OL-2],0.001 to 0.999
10,CC(C)[C@H](NC(=O)OCCF)C(=O)O [OL-4],0.001 to 0.999
11,CCC(CC)[C@H](NC(=O)OC)C(=O)O [OL-5],0.001 to 0.999
